One block for each compound: values may come before it.
How the values were obtained:
[1] = target: T1, Protein kinase C iota type (Homo sapiens) (UniProt P41743); experiment: Selectivity interaction (Kinase panel (Z-LYTE Assay)) EUB0001632a PRKCI; details: at 10 µM
T1 sequence (whole entry): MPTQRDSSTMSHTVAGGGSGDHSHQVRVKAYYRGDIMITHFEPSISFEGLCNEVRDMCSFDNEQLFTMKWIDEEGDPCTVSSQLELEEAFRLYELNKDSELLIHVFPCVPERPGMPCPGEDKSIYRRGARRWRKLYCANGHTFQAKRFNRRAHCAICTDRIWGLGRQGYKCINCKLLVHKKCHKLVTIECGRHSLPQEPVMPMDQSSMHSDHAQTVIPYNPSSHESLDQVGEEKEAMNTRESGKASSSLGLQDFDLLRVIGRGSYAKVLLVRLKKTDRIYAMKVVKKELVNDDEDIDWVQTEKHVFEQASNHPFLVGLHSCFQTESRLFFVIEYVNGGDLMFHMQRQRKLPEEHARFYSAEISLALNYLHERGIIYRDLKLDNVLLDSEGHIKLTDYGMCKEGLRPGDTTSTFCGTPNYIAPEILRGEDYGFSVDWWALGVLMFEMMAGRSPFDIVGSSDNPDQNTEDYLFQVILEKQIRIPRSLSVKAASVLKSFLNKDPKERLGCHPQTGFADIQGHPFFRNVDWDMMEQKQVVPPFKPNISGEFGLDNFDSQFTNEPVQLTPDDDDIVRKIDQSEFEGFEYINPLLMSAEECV

[2] = target: T2, Serine/threonine-protein kinase D1 (Homo sapiens) (UniProt Q15139); experiment: Selectivity interaction (Upstate Kinase Profiler service (Millipore)) EUB0000056c PRKD1; details: at 1 µM
T2 sequence (whole entry): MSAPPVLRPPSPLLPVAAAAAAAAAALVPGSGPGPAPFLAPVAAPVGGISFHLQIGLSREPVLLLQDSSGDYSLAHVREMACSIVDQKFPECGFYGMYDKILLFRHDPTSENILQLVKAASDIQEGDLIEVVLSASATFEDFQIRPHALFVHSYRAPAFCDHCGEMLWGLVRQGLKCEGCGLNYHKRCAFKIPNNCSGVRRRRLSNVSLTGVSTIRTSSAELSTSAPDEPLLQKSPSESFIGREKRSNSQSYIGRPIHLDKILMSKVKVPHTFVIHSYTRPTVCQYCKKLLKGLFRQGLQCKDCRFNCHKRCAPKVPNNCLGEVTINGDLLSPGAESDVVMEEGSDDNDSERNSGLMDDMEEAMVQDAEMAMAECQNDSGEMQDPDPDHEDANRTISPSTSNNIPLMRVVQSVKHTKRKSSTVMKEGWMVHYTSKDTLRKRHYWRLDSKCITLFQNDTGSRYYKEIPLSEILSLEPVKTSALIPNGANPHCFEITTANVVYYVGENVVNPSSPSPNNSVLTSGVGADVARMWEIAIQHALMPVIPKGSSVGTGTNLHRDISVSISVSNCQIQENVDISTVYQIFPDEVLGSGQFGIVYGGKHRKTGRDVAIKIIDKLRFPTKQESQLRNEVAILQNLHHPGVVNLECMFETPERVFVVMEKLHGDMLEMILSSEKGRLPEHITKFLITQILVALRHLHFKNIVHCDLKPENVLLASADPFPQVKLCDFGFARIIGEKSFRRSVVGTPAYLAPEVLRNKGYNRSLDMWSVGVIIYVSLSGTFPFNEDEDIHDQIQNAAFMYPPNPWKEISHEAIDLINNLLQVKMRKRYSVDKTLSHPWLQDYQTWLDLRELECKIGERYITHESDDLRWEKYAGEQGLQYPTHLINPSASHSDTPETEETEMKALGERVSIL

[3] = target: T3, Ephrin type-B receptor 4 (Homo sapiens) (UniProt P54760); experiment: Selectivity interaction (Kinase panel (Invitrogen)) EUB0000639a EPHB4; details: at 200 nM
T3 sequence (whole entry): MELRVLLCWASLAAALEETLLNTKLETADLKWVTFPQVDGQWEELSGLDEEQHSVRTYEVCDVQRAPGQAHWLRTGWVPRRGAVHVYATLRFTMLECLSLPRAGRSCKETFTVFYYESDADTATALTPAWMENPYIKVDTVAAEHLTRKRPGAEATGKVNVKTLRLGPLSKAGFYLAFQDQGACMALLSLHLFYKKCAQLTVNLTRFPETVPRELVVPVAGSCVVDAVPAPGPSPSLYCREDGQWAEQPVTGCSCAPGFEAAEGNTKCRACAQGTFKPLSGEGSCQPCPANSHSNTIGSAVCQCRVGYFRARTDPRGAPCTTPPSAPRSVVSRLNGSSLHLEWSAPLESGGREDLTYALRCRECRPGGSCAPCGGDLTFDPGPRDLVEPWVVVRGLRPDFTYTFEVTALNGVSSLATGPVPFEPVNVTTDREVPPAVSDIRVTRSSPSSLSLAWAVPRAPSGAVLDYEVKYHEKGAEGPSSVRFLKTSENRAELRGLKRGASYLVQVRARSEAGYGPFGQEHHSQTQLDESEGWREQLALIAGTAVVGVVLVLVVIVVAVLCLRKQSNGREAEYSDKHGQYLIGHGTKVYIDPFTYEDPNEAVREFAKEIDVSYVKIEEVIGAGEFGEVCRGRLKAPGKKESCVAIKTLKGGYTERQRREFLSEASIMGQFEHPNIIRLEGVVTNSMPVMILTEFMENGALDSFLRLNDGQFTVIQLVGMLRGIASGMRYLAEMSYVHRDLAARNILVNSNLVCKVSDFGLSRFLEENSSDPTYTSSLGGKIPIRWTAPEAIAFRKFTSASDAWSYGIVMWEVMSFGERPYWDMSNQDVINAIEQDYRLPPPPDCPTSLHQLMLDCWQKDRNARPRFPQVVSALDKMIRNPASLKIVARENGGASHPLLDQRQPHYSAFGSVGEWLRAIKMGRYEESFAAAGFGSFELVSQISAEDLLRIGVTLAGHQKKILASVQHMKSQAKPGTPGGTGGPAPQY

[4] = target: Tyrosine-protein kinase Fyn (Homo sapiens) (UniProt P06241); experiment: Selectivity interaction (ActivX KiNativ screen (kinase selectivity in THP-1 cell lysates)) EUB0000639a FYN; assay type: subcellular; details: lysate, at 0.2 µM
[5] = target: SRSF protein kinase 2 (Homo sapiens) (UniProt P78362); experiment: Selectivity interaction (KinomeScan (DiscoverX)) EUB0000655a SRPK2; details: at 10 µM
[6] = target: Serine/threonine-protein kinase WNK2 (Homo sapiens) (UniProt Q9Y3S1); experiment: Selectivity interaction (KinomeScan (DiscoverX)) EUB0001079a WNK2; details: at 1 µM
[7] = test system: ALK tyrosine kinase receptor (Homo sapiens), Q9UM73 [C1156Y]; experiment: (§1) Selectivity interaction (KinomeScan (DiscoverX)) EUB0001079a ALK; details: at 1 µM
[8] = target: ALK tyrosine kinase receptor (Homo sapiens, UniProt Q9UM73); experiment: as §1; details: at 1 µM
[9] = test system: ALK tyrosine kinase receptor (Homo sapiens), Q9UM73 [L1196M]; experiment: as §1; details: at 1 µM
[10] = target: Serine/threonine-protein kinase PRP4 homolog (Homo sapiens) (UniProt Q13523); details: at 10 µM

Chain of ALK tyrosine kinase receptor (Homo sapiens), Q9UM73 [L1196M] (Q9UM73 whole entry L1196M, looked up): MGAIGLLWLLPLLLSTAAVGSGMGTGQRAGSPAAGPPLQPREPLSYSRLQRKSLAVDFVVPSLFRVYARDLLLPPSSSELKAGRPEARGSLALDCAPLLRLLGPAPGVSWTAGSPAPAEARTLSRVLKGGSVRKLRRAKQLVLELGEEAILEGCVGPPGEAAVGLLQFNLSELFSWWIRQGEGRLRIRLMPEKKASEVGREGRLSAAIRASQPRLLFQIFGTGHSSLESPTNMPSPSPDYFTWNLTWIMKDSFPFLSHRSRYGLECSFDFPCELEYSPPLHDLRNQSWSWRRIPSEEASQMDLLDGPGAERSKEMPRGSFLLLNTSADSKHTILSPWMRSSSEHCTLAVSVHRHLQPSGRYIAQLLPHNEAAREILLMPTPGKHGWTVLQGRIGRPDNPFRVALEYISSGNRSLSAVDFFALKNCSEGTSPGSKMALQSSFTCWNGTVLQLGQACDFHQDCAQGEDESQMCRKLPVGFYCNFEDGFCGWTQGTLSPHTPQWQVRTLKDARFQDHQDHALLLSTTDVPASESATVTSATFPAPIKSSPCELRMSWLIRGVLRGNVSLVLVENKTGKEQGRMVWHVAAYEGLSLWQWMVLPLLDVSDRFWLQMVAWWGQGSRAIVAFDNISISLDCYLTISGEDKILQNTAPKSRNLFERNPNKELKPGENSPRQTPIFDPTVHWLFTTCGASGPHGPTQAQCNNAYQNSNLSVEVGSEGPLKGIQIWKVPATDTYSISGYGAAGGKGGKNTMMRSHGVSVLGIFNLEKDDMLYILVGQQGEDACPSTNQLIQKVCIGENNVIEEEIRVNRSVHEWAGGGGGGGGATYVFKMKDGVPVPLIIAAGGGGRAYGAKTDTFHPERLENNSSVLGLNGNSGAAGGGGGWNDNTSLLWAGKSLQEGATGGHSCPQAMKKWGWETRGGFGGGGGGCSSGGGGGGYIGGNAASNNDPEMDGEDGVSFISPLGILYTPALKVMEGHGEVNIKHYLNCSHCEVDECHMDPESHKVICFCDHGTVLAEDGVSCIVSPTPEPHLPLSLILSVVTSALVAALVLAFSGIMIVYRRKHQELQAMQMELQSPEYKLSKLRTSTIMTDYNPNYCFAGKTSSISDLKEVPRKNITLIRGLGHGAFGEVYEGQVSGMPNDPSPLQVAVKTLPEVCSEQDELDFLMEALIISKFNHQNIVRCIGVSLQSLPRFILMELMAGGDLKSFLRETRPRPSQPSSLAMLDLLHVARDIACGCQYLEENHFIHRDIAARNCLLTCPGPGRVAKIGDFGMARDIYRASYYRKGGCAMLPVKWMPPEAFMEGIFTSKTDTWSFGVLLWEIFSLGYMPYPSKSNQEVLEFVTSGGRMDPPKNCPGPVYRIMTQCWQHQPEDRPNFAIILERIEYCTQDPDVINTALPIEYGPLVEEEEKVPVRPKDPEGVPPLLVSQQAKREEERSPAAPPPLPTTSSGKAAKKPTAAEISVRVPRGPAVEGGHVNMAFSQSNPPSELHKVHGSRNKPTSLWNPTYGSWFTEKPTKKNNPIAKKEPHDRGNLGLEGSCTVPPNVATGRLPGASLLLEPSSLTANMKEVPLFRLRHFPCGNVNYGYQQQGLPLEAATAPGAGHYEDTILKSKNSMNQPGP
Chain of ALK tyrosine kinase receptor (Q9UM73 19-1620 limits assumed): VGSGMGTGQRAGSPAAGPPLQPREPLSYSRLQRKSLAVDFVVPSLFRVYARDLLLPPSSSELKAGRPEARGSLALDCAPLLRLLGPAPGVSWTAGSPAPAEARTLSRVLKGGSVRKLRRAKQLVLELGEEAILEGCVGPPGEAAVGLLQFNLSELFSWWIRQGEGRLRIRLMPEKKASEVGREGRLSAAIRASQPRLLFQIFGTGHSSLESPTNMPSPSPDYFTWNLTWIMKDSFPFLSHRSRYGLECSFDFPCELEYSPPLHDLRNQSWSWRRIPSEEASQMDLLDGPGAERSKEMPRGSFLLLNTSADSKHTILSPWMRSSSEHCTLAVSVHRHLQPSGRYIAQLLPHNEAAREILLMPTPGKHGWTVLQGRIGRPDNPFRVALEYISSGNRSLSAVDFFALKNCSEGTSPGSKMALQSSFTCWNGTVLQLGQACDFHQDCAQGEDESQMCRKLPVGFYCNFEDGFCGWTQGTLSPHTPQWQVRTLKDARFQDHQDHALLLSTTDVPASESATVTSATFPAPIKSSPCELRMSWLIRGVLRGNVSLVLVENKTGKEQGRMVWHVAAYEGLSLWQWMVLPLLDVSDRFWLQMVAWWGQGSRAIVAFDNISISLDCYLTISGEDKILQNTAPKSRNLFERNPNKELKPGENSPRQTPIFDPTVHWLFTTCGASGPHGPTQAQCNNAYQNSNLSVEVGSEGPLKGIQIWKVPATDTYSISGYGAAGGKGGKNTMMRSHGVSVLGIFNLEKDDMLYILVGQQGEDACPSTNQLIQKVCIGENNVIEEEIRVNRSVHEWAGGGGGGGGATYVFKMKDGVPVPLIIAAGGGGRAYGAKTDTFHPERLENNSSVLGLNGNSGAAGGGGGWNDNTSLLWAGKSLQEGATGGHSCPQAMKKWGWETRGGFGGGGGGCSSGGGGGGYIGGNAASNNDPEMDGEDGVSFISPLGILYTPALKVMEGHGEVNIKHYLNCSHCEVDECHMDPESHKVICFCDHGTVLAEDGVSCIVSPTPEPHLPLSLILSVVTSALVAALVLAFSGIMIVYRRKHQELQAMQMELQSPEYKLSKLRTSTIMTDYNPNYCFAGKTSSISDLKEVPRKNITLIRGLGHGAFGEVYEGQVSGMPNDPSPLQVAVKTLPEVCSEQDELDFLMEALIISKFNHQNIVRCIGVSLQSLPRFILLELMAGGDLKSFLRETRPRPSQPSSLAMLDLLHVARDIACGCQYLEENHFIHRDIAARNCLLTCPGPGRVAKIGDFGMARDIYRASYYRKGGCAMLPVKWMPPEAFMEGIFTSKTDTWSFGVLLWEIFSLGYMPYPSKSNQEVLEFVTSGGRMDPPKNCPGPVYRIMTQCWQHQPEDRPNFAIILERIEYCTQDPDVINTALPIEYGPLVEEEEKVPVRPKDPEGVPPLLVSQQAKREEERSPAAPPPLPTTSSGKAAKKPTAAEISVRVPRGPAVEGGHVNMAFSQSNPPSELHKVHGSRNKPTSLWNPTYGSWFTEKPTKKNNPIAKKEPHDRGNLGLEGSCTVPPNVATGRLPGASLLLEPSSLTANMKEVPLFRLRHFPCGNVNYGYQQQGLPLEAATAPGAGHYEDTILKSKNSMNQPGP
Chain of SRSF protein kinase 2 (Homo sapiens) (P78362 whole entry, looked up): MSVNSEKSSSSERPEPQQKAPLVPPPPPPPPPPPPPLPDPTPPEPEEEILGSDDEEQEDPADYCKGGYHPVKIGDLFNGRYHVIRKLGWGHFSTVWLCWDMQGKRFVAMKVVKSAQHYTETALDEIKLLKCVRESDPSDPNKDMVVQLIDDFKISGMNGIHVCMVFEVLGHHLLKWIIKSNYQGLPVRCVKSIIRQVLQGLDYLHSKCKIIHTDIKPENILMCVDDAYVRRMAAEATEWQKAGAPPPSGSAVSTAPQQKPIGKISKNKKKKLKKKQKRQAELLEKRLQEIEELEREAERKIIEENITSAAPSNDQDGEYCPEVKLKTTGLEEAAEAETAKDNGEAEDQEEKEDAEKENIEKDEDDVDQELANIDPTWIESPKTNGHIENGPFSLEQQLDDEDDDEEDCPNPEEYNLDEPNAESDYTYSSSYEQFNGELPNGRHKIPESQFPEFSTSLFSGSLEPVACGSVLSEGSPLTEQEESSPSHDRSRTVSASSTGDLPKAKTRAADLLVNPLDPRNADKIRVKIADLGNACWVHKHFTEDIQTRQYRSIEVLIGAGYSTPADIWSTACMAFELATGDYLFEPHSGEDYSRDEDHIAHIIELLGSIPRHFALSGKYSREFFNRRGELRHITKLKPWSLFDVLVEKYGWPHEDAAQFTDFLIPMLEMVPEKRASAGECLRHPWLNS
Chain of Tyrosine-protein kinase Fyn (Homo sapiens) (P06241 2-537 limits assumed): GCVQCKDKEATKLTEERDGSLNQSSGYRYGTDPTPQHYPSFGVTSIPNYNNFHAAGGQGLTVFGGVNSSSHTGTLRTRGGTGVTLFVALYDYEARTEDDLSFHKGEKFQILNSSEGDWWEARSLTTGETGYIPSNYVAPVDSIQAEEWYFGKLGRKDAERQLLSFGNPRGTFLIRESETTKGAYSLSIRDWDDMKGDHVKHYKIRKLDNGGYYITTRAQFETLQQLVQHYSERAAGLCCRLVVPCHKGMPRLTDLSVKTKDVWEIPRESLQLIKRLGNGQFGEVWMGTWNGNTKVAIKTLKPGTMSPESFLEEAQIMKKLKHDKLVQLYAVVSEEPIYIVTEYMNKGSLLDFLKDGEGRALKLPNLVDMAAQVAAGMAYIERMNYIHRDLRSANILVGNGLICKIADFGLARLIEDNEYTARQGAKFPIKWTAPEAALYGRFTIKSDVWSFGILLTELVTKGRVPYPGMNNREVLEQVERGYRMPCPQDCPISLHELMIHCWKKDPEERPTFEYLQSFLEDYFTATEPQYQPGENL
Chain of ALK tyrosine kinase receptor (Homo sapiens), Q9UM73 [C1156Y] (Q9UM73 whole entry C1156Y, looked up): as the sequence (Q9UM73 whole entry L1196M, looked up) above, with C1156Y, M1196L counted along it

- % of control [1]: 8.02%
Structure (SMILES): Cn1cc(-n2cnc3c(NCc4nc5cc(Cl)c(Cl)cc5[nH]4)nc(N4CCOCC4)nc32)cn1

- % of inhibition [2]: 19%
Structure (SMILES): Cc1ccc(-c2ccc3c(ccc4sc5c(c43)NC[C@@H](C)NC5=O)n2)cn1

- % of inhibition [3]: 4.33%
- % of inhibition [4]: 0.7%
Structure (SMILES): CC[C@@H]1[C@H](F)C(=O)N[C@@H]1COc1nccc2cc(C(N)=O)c(OC)cc12 [ZIMLOVISERTIB]

Structure (SMILES): CN(C)CCOc1ccc(-c2nc(-c3ccncc3)c(-c3ccc4c(c3)CC/C4=N\O)[nH]2)cc1
- % of control [5]: 100%

Structure (SMILES): Nc1cnc(N2CCc3cc(S(=O)(=O)Nc4c(F)cc(Cl)cc4F)cc(N4CCCC4=O)c32)nc1 [TP-020n]
- % of control [6]: 100%
- % of control [7]: 100%
- % of control [8]: 100%
- % of control [9]: 81%

Structure (SMILES): Cc1cc([C@@H](C)Nc2ccccc2C(=O)O)c2nc(N3CCOCC3)cc(=O)n2c1 [AZD-6482]
- % of control [10]: 71%

Source: ChEMBL document CHEMBL5465560, “Selectivity Literature for EUbOPEN Chemogenomic Library” (2024)
